# How the values were obtained:
# [1] = test system: endogenous STAT3 target genes; assay: qRT-PCR of endogenous STAT3 target genes; assay type: cell-based; details: U266, INA-6 and HEL cells, 6 hours
# Procedure: Total RNA was reverse transcribed using random hexamers and assayed by qRT-PCR as previously described (see, Grivennikov S I, Greten F R, & Karin M (2010) Immunity, inflammation, and cancer. Cell 140(6):883-899).
# Gene expression was analyzed in triplicate, normalized by 18S rRNA, and expressed as mean±SEM. For gene expression microarrays, RNA was isolated by Trizol, purified further on RNeasy columns, and profiled using Affymetrix Human Gene 1.0 ST arrays (Affymetrix). Results were deposited under GEO Accession: GSE46575.
# The mechanism by which atovaquone inhibits STAT3 was investigated. STAT3-luc reporter cells were pre-treated with atovaquone (20 μM) for 1 hr, and then stimulated with IL-6 (10 ng/ml) for 15 minutes, 30 minutes, 1 hours, or 2 hours. Since STAT3 transcriptional activity is critically dependent on tyrosine phosphorylation, Western blotting was performed to see if atovaquone affected STAT3 phosphorylation. […] Next, atovaquone was used to treat U266 (2.5 hours), HEL (6 hours), or INA-6 cells (4 hours). […] In U266 and INA-6 cells, the source of STAT3 activation is JAK-dependent IL-6 signaling, while in HEL cells, STAT3 is activated by mutant JAK2-V617F. Given that atovaquone inhibits constitutive STAT3 activation in cancer cells, it was asked whether atovaquone inhibits expression of endogenous STAT3 target genes in this context.
# HEL cells = assay: Cell viability (Cell Titer Glo), HEL; assay type: cell-based; details: 72 hours
# Procedure: Western blotting was performed as previously described (Battle T E, Arbiser J, & Frank D A (2005) The natural product honokiol induces caspase dependent apoptosis in B-cell chronic lymphocytic leukemia (B-CLL) cells. Blood 106(2):690-697). Antibodies to phospho-MAPK (9101), total MAPK (9102), phospho-Y705 STAT3 (9131), phospho-S6 (2215), total S6 (2217), phospho-4E-BP1 (9451), total 4E-BP1 (9644), total RSK (9355), phospho-S6K (9234, 85 used at 1:5000), total S6K (2708), phospho-eIF2α (9721, used at 1:1000), total eIF2α (5324), ATF4 (11815, used at 1:1000), PDGFRβ (3169), IGF1Rβ (9750), EGFR (2232), and HER2 (2242) were from Cell Signaling Technology. Phospho-RSK antibody was from R&D (AF889). Antibodies to total STAT3 (sc-482) and gp130 (sc-656, used at 1:1000) were from Santa Cruz Biotechnology. Phospho-S727 STAT3 antibody was described previously (229). REDD1 antibody was from Proteintech (10638-1-AP, used at 1:1000). Antibody recognizing full-length and cleaved ATF6 was from Abcam (ab122897, used at 1:1000). Antibodies to tubulin (T5168) and beta actin (A5316) were from Sigma. All antibodies were used at 1:10000 dilution for western blot unless otherwise noted. […] Cell viability was measured as ATP-dependent luminescence by Cell Titer Glo (Promega). […]
smiles,measurement,setting,value
"O=C1C(O)=C([C@H]2CC[C@H](c3ccc(Cl)cc3)CC2)C(=O)c2ccccc21 [atovaquone, trans-2-[4-(4-chlorophenyl)cyclohexyl]-3-hydroxy-1,4-naphthalenedione]",expression of multiple STAT3 target genes,[1],substantially downregulated
same,viability of HEL cells,HEL cells,killed

# From US10130590B2, “Methods of treating cancer with atovaquone-related compounds” (DANA-FARBER CANCER INSTITUTE, INC., priority 2013, dated 2018)
